System: HepG2
Experiment: Hepatoprotective activity against N-acetyl-p-aminophenol-induced cell injury in human HepG2 cells assessed as cell survival at 10 uM after 48 hrs by MTT assay (reference value: 39.87%)
Format: functional
Conditions: HepG2, 48 h, read-out: Survival

C/C(=C\Cc1cc(C(=O)O)cc2c1O[C@H](C(C)(C)O)[C@H]2O)CO
viability at 10 µM: 53.6%

COc1cc(-c2coc3c([C@@H]4O[C@H](CO)[C@@H](O)[C@H](O)[C@H]4O)c(O)ccc3c2=O)ccc1O
viability at 10 µM: 45.2%

O=c1c(-c2ccc(O)cc2)coc2c([C@@H]3O[C@H](CO)[C@@H](O)[C@H](O)[C@H]3O)c(O)ccc12 [PUERARIN]
viability at 10 µM: 41.3%

C[C@@H]1O[C@@H](Oc2ccc(C(=O)O)cc2)[C@H](O)[C@H](O[C@@H]2O[C@H](CO)[C@@H](O)[C@H](O)[C@H]2O)[C@H]1O
viability at 10 µM: 54.7%

COC(=O)c1cc(OC)c2c(c1-c1c(CO)cc(OC)c3c1OCO3)OCO2 [BICYCLOL]
viability at 10 µM: 52.9%

COc1cc(C(=O)O)ccc1O[C@@H]1O[C@@H](C)[C@H](O)[C@@H](O[C@@H]2O[C@H](CO)[C@@H](O)[C@H](O)[C@H]2O)[C@H]1O
viability at 10 µM: 54.6%

— ChEMBL document CHEMBL3853355, “Six new compounds from Atractylodes lancea and their hepatoprotective activities” (2016)
